In paper PMC6379368, “Extracellular and intracellular small-molecule galectin-3 inhibitors” (Scientific Reports, 2019):

Legend:
[1] = test system: pathological corneal neovascularization and fibrosis; parameters: method as in PMID 27356186, PMID 28055102; conditions: cited from earlier work
MIA PaCa-2 cells = assay: Growth curves, MIA PaCa-2; assay type: cell-based; conditions: MIA PaCa-2, 10 µM
Method: (§1) METHODS (not described in main article)
(§2) The AsPC-1, BxPc-3, MIA PaCa-2, and PanC-1 pancreatic cancer cell lines were purchased from the American Type Culture Collection (ATCC) (Manassas, VA, USA). AsPC-1 and BxPc-3 cell lines were cultured in RPMI-1640 medium, and MIA PaCa-2 and PanC-1 in Dulbecco's Modified Eagle Medium (DMEM)/Ham's F12 medium mixture (1:1). The medium of all four pancreatic cancer cell lines was supplemented with 10 % fetal bovine serum (FBS), 100 U/ml penicillin, and 100 μg/ml streptomycin. The L56Br-C1 breast cancer cell line was established at Lund University (Lund, Sweden)1, and was cultured in RPMI-1640 medium supplemented with 10 % heat-inactivated FBS, 100 U/ml penicillin, 100 μg/ml streptomycin, 1 mM non-essential amino acids, and 10 µg/ml insulin. The MCF-10A normal-like breast cell line was obtained from ATCC and was cultured in the same medium mixture as L56Br-C1 with the addition of 20 ng/ml epidermal growth factor, 50 ng/ml cholera toxin, and 500 ng/ml hydrocortisone.
(§3) Fluorescence anisotropy assay
(§4) The affinity between inhibitor 1 and the carbohydrate recognition domain (CRD) of galectin-8C and between inhibitor 3 and the CRD of galectin-2, -4N, -4C, 8C, and -9C was determined using the fluorescence anisotropy assay described in the main article. Experimental conditions used for each galectin […]

MCF-10A cells = assay: MTT assay, MCF-10A normal-like breast cell line; assay type: cell-based; conditions: 72 hours
Method: (§5) The MTT (3-[4,5-dimethylthiazol-2-yl]−2,5-diphenyltetrazolium bromide) assays were performed as previously described. In brief, cells were seeded in 96-well plates (6000 cells/well for MCF-7 and HCC1937 and 5000 cells for JIMT-1 in 180 μl fully-supplemented medium as described under Cell culture). The cells were incubated for 24 hours before addition of galectin-3 inhibitors. The inhibitors were diluted in PBS from their respective stock solution in DMSO (see Galectin-3 inhibitors) and used at final concentrations ranging from 0.04 to 40 μM. DMSO was adjusted to make the final DMSO concentration 0.2% for all inhibitor concentrations, including the control sample (no inhibitor). After 72 hours of treatment, 20 μl of 5 mg/ml MTT solution (in PBS) was added to each well and incubation continued for 1 hour at 37 °C. […] Absorbance was monitored at 540 nm using a Labsystems iEMS Reader MF (Labsystems Oy, Helsinki, Finland) and the software DeltaSoft II v.4.14 (Biometallics Inc., Princeton, NJ, USA). […]
as §3
(§6) The affinity between inhibitor 1 and the carbohydrate recognition domain (CRD) of galectin-8C and between inhibitor 3 and the CRD of galectin-2, -4N, -4C, 8C, and -9C was determined using the fluorescence anisotropy assay described in the main article. […]

BxPc-3 cells = assay: Growth curves, BxPc-3; assay type: cell-based; conditions: BxPc-3, 10 µM
Method: as §1, §2, §3, §4

PanC-1 cells = assay: MTT assay, PanC-1 pancreatic cancer cells; assay type: cell-based; conditions: PanC-1, 72 hours
Method: as §5, §3, §6

SMILES: OC[C@H]1O[C@@H](S[C@@H]2O[C@H](CO)[C@H](O)[C@H](n3cc(-c4cccc(F)c4)nn3)[C@H]2O)[C@H](O)[C@@H](n2cc(-c3cccc(F)c3)nn2)[C@H]1O [compound 1]
- effect in pathological corneal neovascularization and fibrosis [1]: therapeutic effects
- cell proliferation (growth curves) (MIA PaCa-2 cells): no effect
- toxicity (MTT) (MCF-10A cells): low toxicity
- cell proliferation (growth curves) (BxPc-3 cells): no effect
- toxicity (MTT) (PanC-1 cells): low toxicity
